From patent publication US8232406B2, “c-MET protein kinase inhibitors” (Vertex Pharmaceuticals Incorporated, priority 2006, dated 2012)

Target: c-MET (Homo sapiens, UniProt P08581)
Assay: Ki determination for the inhibition of c-MET (standard radiometric 33P-ATP kinase assay, polyE4Y substrate)
Format: biochemical
Details: 1.0 nM c-Met, 35 μM ATP, 0.5 mg/mL polyE4Y, 20 min; competitive tight-binding fit
Method in brief: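 Ki obtained by fitting data to competitive tight-binding inhibition kinetics. c-Met at 1.0 nM phosphorylated polyE4Y (0.5 mg/mL) with 35 μM 33P-ATP for 20 min in pH 7.5 HEPES buffer with MgCl2, NaCl, BSA and DTT. Incorporated label measured by scintillation after TCA precipitation on filters.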

Chain of c-MET (P08581 25-1390): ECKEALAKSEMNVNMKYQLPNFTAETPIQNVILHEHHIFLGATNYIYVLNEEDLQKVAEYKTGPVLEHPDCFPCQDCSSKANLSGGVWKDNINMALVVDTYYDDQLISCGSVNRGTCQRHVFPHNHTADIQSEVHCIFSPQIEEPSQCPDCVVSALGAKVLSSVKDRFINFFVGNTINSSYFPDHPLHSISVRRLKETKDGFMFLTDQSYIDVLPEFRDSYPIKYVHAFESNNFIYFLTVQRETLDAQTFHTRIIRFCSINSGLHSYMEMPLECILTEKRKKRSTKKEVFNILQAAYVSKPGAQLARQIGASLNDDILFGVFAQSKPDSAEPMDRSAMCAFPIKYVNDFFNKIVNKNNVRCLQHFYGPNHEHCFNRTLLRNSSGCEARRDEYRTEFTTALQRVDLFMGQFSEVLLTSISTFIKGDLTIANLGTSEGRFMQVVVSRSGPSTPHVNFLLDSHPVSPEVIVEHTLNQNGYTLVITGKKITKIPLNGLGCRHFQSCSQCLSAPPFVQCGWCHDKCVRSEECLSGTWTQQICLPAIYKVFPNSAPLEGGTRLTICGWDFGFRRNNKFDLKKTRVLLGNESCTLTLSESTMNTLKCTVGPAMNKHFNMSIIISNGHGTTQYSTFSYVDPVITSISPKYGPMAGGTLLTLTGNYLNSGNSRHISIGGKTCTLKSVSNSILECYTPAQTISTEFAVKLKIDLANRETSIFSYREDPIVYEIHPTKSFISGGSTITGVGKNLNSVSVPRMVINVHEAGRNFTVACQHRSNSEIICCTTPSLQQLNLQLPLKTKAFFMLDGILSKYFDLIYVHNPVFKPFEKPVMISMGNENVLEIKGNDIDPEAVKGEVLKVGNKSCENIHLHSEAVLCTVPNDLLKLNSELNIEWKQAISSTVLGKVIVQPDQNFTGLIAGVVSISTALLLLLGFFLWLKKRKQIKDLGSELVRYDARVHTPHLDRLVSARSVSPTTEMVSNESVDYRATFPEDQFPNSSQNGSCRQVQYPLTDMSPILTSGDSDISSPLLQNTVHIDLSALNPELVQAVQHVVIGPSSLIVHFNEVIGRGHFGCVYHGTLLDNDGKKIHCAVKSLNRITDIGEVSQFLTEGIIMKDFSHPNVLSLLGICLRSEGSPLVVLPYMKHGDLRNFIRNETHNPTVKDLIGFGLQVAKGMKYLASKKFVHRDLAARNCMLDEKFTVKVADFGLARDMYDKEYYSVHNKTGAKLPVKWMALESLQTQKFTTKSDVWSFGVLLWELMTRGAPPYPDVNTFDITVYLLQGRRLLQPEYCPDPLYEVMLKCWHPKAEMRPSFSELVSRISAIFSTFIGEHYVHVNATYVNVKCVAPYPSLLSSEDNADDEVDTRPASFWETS

| Compound | Ki |
| --- | --- |
| Cc1nnc(-c2cc(-c3cnn(C4CCNCC4)c3)cnc2N)n1-c1cccc(Cl)c1F [I-A-454] | 100 to 1000 nM |
| Nc1ncc(-c2nc3c(s2)CNCC3)cc1-c1nnnn1-c1cccc(F)c1F [I-A-465] | 100 to 1000 nM |
| Nc1ncc(-c2nc3c(s2)CNCC3)cc1-c1nnnn1-c1cccc(Cl)c1Cl [I-A-467] | 100 to 1000 nM |
| Cc1nn(C2CCNCC2)c(C)c1-c1cnc(N)c(-c2nnnn2-c2cccc(F)c2F)c1 [I-A-478] | 100 to 1000 nM |
| Cc1nn(C2CCNCC2)c(C)c1-c1cnc(N)c(-c2nnnn2-c2cccc(Cl)c2F)c1 [I-A-479] | 100 to 1000 nM |
| Nc1ncc(-c2ccco2)cc1-c1nnnn1-c1cccc(F)c1F [I-A-488] | 100 to 1000 nM |
| Nc1ncc(-c2ccncc2)cc1-c1nnnn1-c1cccc(F)c1F [I-A-490] | 100 to 1000 nM |
| Nc1ncc(-c2ccccn2)cc1-c1nnnn1-c1cccc(F)c1F [I-A-493] | 100 to 1000 nM |
| Cc1nnc(-c2cnc(N)c(-c3nnnn3-c3cccc(F)c3F)c2)s1 [I-A-494] | 100 to 1000 nM |
| Cn1cnc(-c2cnc(N)c(-c3nnnn3-c3cccc(F)c3F)c2)c1 [I-A-495] | 100 to 1000 nM |
| Cn1cncc1-c1cnc(N)c(-c2nnnn2-c2cccc(F)c2F)c1 [I-A-496] | 100 to 1000 nM |
| Nc1ncc(-c2ccc3c(c2)CCNC3)cc1-c1nnnn1-c1cccc(F)c1F [I-A-509] | 100 to 1000 nM |
| CC(=O)N1CC=C(c2cnc(N)c(-c3nnnn3-c3cccc(F)c3F)c2)CC1 [I-A-510] | ≤ 100 nM |
| CCC(=O)N1CC=C(c2cnc(N)c(-c3nnnn3-c3cccc(F)c3F)c2)CC1 [I-A-511] | ≤ 100 nM |
| CC(C)C(=O)N1CC=C(c2cnc(N)c(-c3nnnn3-c3cccc(F)c3F)c2)CC1 [I-A-512] | ≤ 100 nM |
| CC(C)CC(=O)N1CC=C(c2cnc(N)c(-c3nnnn3-c3cccc(F)c3F)c2)CC1 [I-A-513] | ≤ 100 nM |
| COCCC(=O)N1CC=C(c2cnc(N)c(-c3nnnn3-c3cccc(F)c3F)c2)CC1 [I-A-514] | ≤ 100 nM |
| CC1(C)CC(C(=O)N2CC=C(c3cnc(N)c(-c4nnnn4-c4cccc(F)c4F)c3)CC2)CCO1 (centres unmarked) [I-A-515] | ≤ 100 nM |

| Compound | Ki |
| --- | --- |
| Nc1ncc(C2=CCN(C(=O)CC3CCOCC3)CC2)cc1-c1nnnn1-c1cccc(F)c1F [I-A-516] | ≤ 100 nM |
| C[C@@H](C(=O)N1CC=C(c2cnc(N)c(-c3nnnn3-c3cccc(F)c3F)c2)CC1)N1CCCC1=O [I-A-517] | 100 to 1000 nM |
| Nc1ncc(C2=CCN(C(=O)c3ccncc3)CC2)cc1-c1nnnn1-c1cccc(F)c1F [I-A-518] | ≤ 100 nM |
| CCCN1CCc2cc(-c3cnc(N)c(-c4nnnn4-c4cccc(F)c4F)c3)sc2CC1 [I-A-519] | ≤ 100 nM |
| Nc1ncc(C2=CCN(C(=O)OC3CCOC3)CC2)cc1-c1nnnn1-c1cccc(F)c1F (centres unmarked) [I-A-520] | ≤ 100 nM |
| Nc1ncc(C2=CCN(C(=O)C3CCOCC3)CC2)cc1-c1nnnn1-c1cccc(F)c1F [I-A-521] | ≤ 100 nM |
| Nc1ncc(C2=CCN(C(=O)C3CCCOC3)CC2)cc1-c1nnnn1-c1cccc(F)c1F (centres unmarked) [I-A-522] | ≤ 100 nM |
| Nc1ncc(C2=CCN(C(=O)C3CC3)CC2)cc1-c1nnnn1-c1cccc(F)c1F [I-A-523] | ≤ 100 nM |
| Nc1ncc(C2=CCN(C(=O)CC3CC3)CC2)cc1-c1nnnn1-c1cccc(F)c1F [I-A-524] | ≤ 100 nM |
| Nc1ncc(C2=CCNCC2)cc1-c1nnnn1-c1cccc(F)c1F [I-A-525] | 100 to 1000 nM |
| Nc1ncc(C2=CCN(C(=O)O[C@H]3CCOC3)CC2)cc1-c1nnnn1-c1cccc(F)c1F [I-A-526] | ≤ 100 nM |
| Nc1ncc(C2=CCN(C(=O)[C@@H]3CCOC3)CC2)cc1-c1nnnn1-c1cccc(F)c1F [I-A-527] | ≤ 100 nM |
| Nc1ncc(-c2cnn(C3CC4CCC(C3)N4)c2)cc1-c1nnnn1-c1cccc(Cl)c1F (centres unmarked) [I-A-528] | ≤ 100 nM |
| Nc1ncc(-c2ccc(C3CCNCC3)s2)cc1-c1nnnn1-c1cccc(Cl)c1F [I-A-532] | ≤ 100 nM |
| Nc1ncc(-c2nc3c(s2)CNCC3)cc1-c1nnnn1-c1cccc(Cl)c1F [I-A-533] | 100 to 1000 nM |
| Nc1ncc(-c2ccn(C3CCNCC3)c2)nc1-c1nnnn1-c1cccc(F)c1F [I-A-534] | ≤ 100 nM |
| Nc1ncc(-c2cnn([C@H]3CCNC3)c2)nc1-c1nnnn1-c1cccc(F)c1F [I-A-536] | ≤ 100 nM |
| Nc1ncc(-c2nc3c(s2)CNCC3)nc1-c1nnnn1-c1cccc(F)c1F [I-A-537] | 100 to 1000 nM |

Further lines, results first:

| Ki | Compound |
| --- | --- |
| ≤ 100 nM | Nc1ncc(-c2cnn(C3CCN(C4CCC4)CC3)c2)cc1-c1nnnn1-c1cccc(F)c1F [I-A-451] |
| ≤ 100 nM | Nc1ncc(-c2cnn(C3CCN(CCF)CC3)c2)cc1-c1nnnn1-c1cccc(F)c1F [I-A-452] |
| ≤ 100 nM | Nc1ncc(-c2cnn(C3CCN(CC(F)F)CC3)c2)cc1-c1nnnn1-c1cccc(F)c1F [I-A-453] |
| ≤ 100 nM | CC(=O)N1CCC(n2cc(-c3cnc(N)c(-c4nnnn4-c4cccc(F)c4F)c3)cn2)CC1 [I-A-455] |
| ≤ 100 nM | Nc1ncc(-c2ccc3c(c2)CNCC3)cc1-c1nnnn1-c1cccc(F)c1F [I-A-456] |
| ≤ 100 nM | CC(=O)N1CCC(n2cc(-c3cnc(N)c(-c4nnc(C)n4-c4cccc(Cl)c4F)c3)cn2)CC1 [I-A-457] |
| ≤ 100 nM | CCN1CCC(n2cc(-c3cnc(N)c(-c4nncn4-c4cccc(Cl)c4F)c3)cn2)CC1 [I-A-458] |
| ≤ 100 nM | Nc1ncc(-c2cnn(C3CCN(CCF)CC3)c2)cc1-c1nncn1-c1cccc(Cl)c1F [I-A-459] |
| ≤ 100 nM | Nc1ncc(-c2cnn(C3CCN(CC(F)F)CC3)c2)cc1-c1nncn1-c1cccc(Cl)c1F [I-A-460] |
| ≤ 100 nM | CCCN1CCC(n2cc(-c3cnc(N)c(-c4nnnn4-c4cccc(F)c4F)c3)cn2)CC1 [I-A-461] |
| ≤ 100 nM | N#CCN1CCC(n2cc(-c3cnc(N)c(-c4nnnn4-c4cccc(F)c4F)c3)cn2)CC1 [I-A-462] |
| ≤ 100 nM | Nc1ncc(-c2csc(C3CCNCC3)c2)cc1-c1nnnn1-c1cccc(F)c1F [I-A-463] |
| ≤ 100 nM | Nc1ncc(-c2ccn(C3CCNCC3)c2)cc1-c1nnnn1-c1cccc(F)c1F [I-A-464] |
| ≤ 100 nM | Nc1ncc(-c2ccn(CCN3CCCC3)c2)cc1-c1nnnn1-c1cccc(F)c1F [I-A-466] |
| ≤ 100 nM | Nc1ncc(-c2cnn(C3CCNCC3)c2)nc1-c1nnnn1-c1cccc(F)c1F [I-A-468] |
| ≤ 100 nM | Nc1ncc(-c2cnn(C3CCN(CCO)CC3)c2)cc1-c1nnnn1-c1cccc(Cl)c1F [I-A-469] |
| ≤ 100 nM | CCCN1CCC(n2cc(-c3cnc(N)c(-c4nnnn4-c4cccc(Cl)c4F)c3)cn2)CC1 [I-A-470] |
| ≤ 100 nM | CC(C)N1CCC(n2cc(-c3cnc(N)c(-c4nncn4-c4cccc(Cl)c4F)c3)cn2)CC1 [I-A-471] |
| ≤ 100 nM | Nc1ncc(-c2cnn(C3CCN(CC4CC4)CC3)c2)cc1-c1nnnn1-c1cccc(Cl)c1F [I-A-472] |
| ≤ 100 nM | Nc1ncc(-c2cnn(C3CCN(CC4CCC4)CC3)c2)cc1-c1nnnn1-c1cccc(Cl)c1F [I-A-473] |
| ≤ 100 nM | Nc1ncc(-c2cnn(C3CCN(CC4CCCC4)CC3)c2)cc1-c1nnnn1-c1cccc(Cl)c1F [I-A-474] |
| ≤ 100 nM | CC(C)CN1CCC(n2cc(-c3cnc(N)c(-c4nnnn4-c4cccc(Cl)c4F)c3)cn2)CC1 [I-A-475] |

| Ki | Compound |
| --- | --- |
| ≤ 100 nM | COCCN1CCC(n2cc(-c3cnc(N)c(-c4nncn4-c4cccc(F)c4F)c3)cn2)CC1 [I-A-476] |
| ≤ 100 nM | COCCN1CCC(n2cc(-c3cnc(N)c(-c4nnnn4-c4cccc(Cl)c4F)c3)cn2)CC1 [I-A-477] |
| ≤ 100 nM | CCOC(=O)N1CCc2cc(-c3cnc(N)c(-c4nnnn4-c4cccc(F)c4F)c3)sc2CC1 [I-A-480] |
| ≤ 100 nM | Nc1ncc(-c2cc3c(s2)CCNCC3)cc1-c1nnnn1-c1cccc(Cl)c1F [I-A-481] |
| ≤ 100 nM | CCCN1CCC(n2cc(-c3cnc(N)c(-c4nnnn4-c4cccc(F)c4F)c3)nn2)CC1 [I-A-482] |
| ≤ 100 nM | Nc1ncc(-c2cn(C3CCNCC3)nn2)cc1-c1nnnn1-c1cccc(F)c1F [I-A-483, 3-(1-(2,3-Difluorophenyl)-1H-tetrazol-5-yl)-5-(1-(piperidin-4-yl)-1H-1,2,3-triazol-4-yl)pyridin-2-amine] |
| ≤ 100 nM | CN1C2CCC1CC(n1cc(-c3cnc(N)c(-c4nnnn4-c4cccc(F)c4F)c3)nn1)C2 (centres unmarked) [I-A-484] |
| ≤ 100 nM | Nc1ncc(-c2cn(C3CCOCC3)nn2)cc1-c1nnnn1-c1cccc(F)c1F [I-A-485] |
| ≤ 100 nM | Nc1ncc(-c2cccs2)cc1-c1nnnn1-c1cccc(F)c1F [I-A-487] |
| ≤ 100 nM | Nc1ncc(-c2cnc(C3CCNCC3)s2)cc1-c1nnnn1-c1cccc(Cl)c1F [I-A-491] |
| ≤ 100 nM | Nc1ncc(-c2cc3c(s2)CNCC3)cc1-c1nnnn1-c1cccc(F)c1F [I-A-492, 3-(1-(2,3-Difluorophenyl)-1H-tetrazol-5-yl)-5-(4,5,6,7-tetrahydrothieno[2,3-c]pyridin-2-yl)pyridin-2-amine] |
| ≤ 100 nM | Nc1ncc(-c2ccoc2)cc1-c1nnnn1-c1cccc(F)c1F [I-A-497] |
| ≤ 100 nM | CCN1CCC[C@@H](n2cc(-c3cnc(N)c(-c4nnnn4-c4cccc(Cl)c4Cl)c3)cn2)C1 [I-A-499] |
| ≤ 100 nM | Nc1ncc(-c2cnn(C[C@@H]3CCCN3)c2)cc1-c1nnnn1-c1cccc(F)c1F [I-A-500] |
| ≤ 100 nM | Nc1ncc(-c2cnn(CC3CCNC3)c2)cc1-c1nnnn1-c1cccc(F)c1F (centres unmarked) [I-A-501] |
| ≤ 100 nM | Nc1ncc(-c2cnn(CC3CCNCC3)c2)cc1-c1nnnn1-c1cccc(F)c1F [I-A-502] |
| ≤ 100 nM | CN1CCC[C@H]1C(=O)N1CC=C(c2cnc(N)c(-c3nnnn3-c3cccc(F)c3F)c2)CC1 [I-A-503] |
| ≤ 100 nM | Nc1ncc(C2=CCN(C(=O)[C@@H]3CCCN3)CC2)cc1-c1nnnn1-c1cccc(F)c1F [I-A-504] |
| ≤ 100 nM | Nc1ncc(C2=CCN(C(=O)C[C@@H]3CCCN3)CC2)cc1-c1nnnn1-c1cccc(F)c1F [I-A-505] |
| ≤ 100 nM | CC(C)(C)OC(=O)N1CC=C(c2cnc(N)c(-c3nnnn3-c3cccc(F)c3F)c2)CC1 [I-A-506] |
| ≤ 100 nM | Nc1ncc(C2=CCN(C(=O)c3cccnc3)CC2)cc1-c1nnnn1-c1cccc(F)c1F [I-A-507] |
| ≤ 100 nM | CC(C)OC(=O)N1CC=C(c2cnc(N)c(-c3nnnn3-c3cccc(F)c3F)c2)CC1 [I-A-508] |
